This note sets out measurements from US6335363B1, “Use of inhibitors of the KQTI channel and methods of controlling and treating diseases caused by helminths and ectoparasites” (Aventis Pharma Deutschland GmbH, priority 1998, dated 2002).

Each structure is given as a SMILES string.

The subject of the test is KQT1 channel. The test can be described thus: Activity against KQT1 in Xenopus oocytes (two-microelectrode voltage clamp). The test is classed as cell-based, Caenorhabditis elegans. Details: dose or concentration left out as unconfirmed. The note with it: KQT1 expressed in Xenopus oocytes; slowly activated potassium current. On the procedure:
To test the ct of IKS channel blockers on the KQT1 channel, electrophysiological studies were carried out on Xenopus oocytes which express the KQT1 channel (specific IKS channel of the nematode Caenorhabditis elegans). An adult female frog (Xenopus laevis) was […] oocytes of all development stages were removed from the ovarian bags. Oocytes of the development stages V and VI were selected; using a nanoliter injector mounted in a micromanipulator, 10 ng of the KQT1-specific m-RNA were injected into each oocyte. After 1-4 days, sufficient KQT1 channels were expressed for it to be possible to measure the corresponding currents. For measuring the slowly activated potassium currents under constant intracellular conditions, the two-microelectrode voltage clamp method was employed. This method is based on operating with 2 intracellular microelectrodes; the first electrode measures the membrane potential against a reference electrode, the second electrode is used to inject current which is necessary to maintain a desired potential. During the measurement, the holding potential was adjusted to -80 mV, which corresponds to the open-circuit membrane potential. The electrophysiological measuring stand comprised a vibration-damped experiment table on which were mounted a purpose-made measuring chamber, 2 micromanipulators, in each case with a preamplifier and a holder for injection microelectrodes, and a stereomicroscope. The complete measuring stand was surrounded by a Faraday cage to minimize electrical disturbances during the measurement. During the measurement, the oocyte was suspended in a solution of ND96 buffer. To activate the voltage-dependent IKS channel, the oocyte membrane was depolarized by a voltage jump from the holding potential (-80 mV) to 0 mV, and this state was maintained for 10 seconds before the holding potential was reestablished. The time profile of the measuring protocol was repeated every 45 s. During the depolarization phase, the slowly activated potassium current was measured.
One may read the Inhibition as how much of the control response was suppressed. Regarding `CCS(=O)(=O)N(C)C1CCCCc2ccc(F)cc21` (stereo not drawn), the Inhibition is 78%. For the compound `CCS(=O)(=O)N(CC(=O)Nc1ccncc1)C1CC(C)(C)Oc2ccc(F)cc21` (stereo not drawn) [2-[ETHANESULFONYL-(6- FLUORO-2,2-DIMETHYL- CHROMAN-4-YL)-AMINO]- N-PYRIDIN-4-YL- ACETAMIDE], the Inhibition was found to be 35%. `CCS(=O)(=O)N(C)C1CC(C)(C)Oc2cc(OC)c(OC)cc21` (stereo not drawn) [4-N-ETHYLSULFONYL-N- METHYLAMINO-6,7 DIMETHOXY-2,2- DIMETHYLCHROMANE] came in with an Inhibition of 30%. With `CCS(=O)(=O)N(CCCC(F)(F)F)C1CC(C)(C)Oc2cc(Cl)c(Cl)cc21` (stereo not drawn) [6,7-DICHLORO-4-[N- ETHYLSULFONYL-N- (4,4,4-TRIFLUORO- BUTYL)AMINO]-2,2- DIMETHYLCHROMANE] the figure was 88%; with `CCS(=O)(=O)N(C)C1c2cc(C#N)ccc2OC(C)(C)C1O` (stereo not drawn) [6-CYANO-4-TRANS-(N- ETHYLSULFONYL-N- METHYLAMINO)-3 HYDROXY-2,2- DIMETHYLCHROMANE], 40%; with `CCS(=O)(=O)N(C)C1CC(C)(C)Oc2cc(Cl)c(F)cc21` (stereo not drawn) [7-CHLORO-4-N- ETHYLSULFONYL-N- METHYLAMINO-6- FLUORO-2,2- DIMETHYLCHROMANE], 89%. For `CCS(=O)(=O)N(CC(=O)NCCN(C)C)C1CC(C)(C)Oc2ccc(F)cc21` (stereo not drawn) [N-(2-DIMETHYLAMINO- ETHYL)-2-[ETHANE- SULFONYL-(6-FLUORO- 2,2-DIMETHYL-CHROMAN- 4-YL)-AMINO]- ACETAMIDE] the value was 22%; for `CN(C1=CC(C)(C)Oc2ccc(OCCCC(F)(F)F)cc21)S(C)(=O)=O` [N-[2,2-DIMETHYL-6-(4,4,4- TRIFLUOROBUTOXY)-2H- CHROMEN-4-YL]-N- METHYL- METHANESULFONAMIDE], 92%.

`CCS(=O)(=O)N(CC(=O)NCCN(C)Cc1ccccc1)C1CC(C)(C)Oc2ccc(F)cc21` (stereo not drawn) [N-[2-(BENZYL-METHYL- AMINO)-ETHYL]-2- [ETHANESULFONYL-(6- FLUORO-2,2-DIMETHYL- CHROMAN-4-YL)-AMINO]- ACETAMIDE] registered an Inhibition of 36%.
